Results as given in publication PMC8424644, “Thermodynamic Stability and Speciation of Ga(III) and Zr(IV) Complexes with High-Denticity Hydroxamate Chelators” (Inorganic Chemistry, 2021).
Marks after values point to notes of the source that are not given here.

How the values were obtained:
[1] = Fe(III) complex stability, potentiometric titrations; assay type: physicochemical; settings: 25 °C, I = 0.1 M NaClO4
From the text: To evaluate the thermodynamic stability of Ga(III) and Zr(IV) complexes of the investigated ligands, the binding properties and speciation of Fe(III) complexes have first been determined (all the details are given in the Supporting Information). There are several reasons for this protocol. First, (i) the electron configuration of Ga(III) (d^10) and Zr(IV) (d^0) hinders the attainment of spectral information for most of the complexes. Furthermore, (ii) both metal ions are highly acidic and they are readily hydrolyzed over almost the entire pH range. In addition, (iii) the high charge to size ratio of the Zr(IV) ion implies the formation of complexes with an exceptional thermodynamic stability (already at very low pH); as a consequence, the stability constants cannot be directly determined using standard potentiometric titrations. Thus, the thermodynamic stability constants of the Fe(III)-H3L1 and Fe(III)-H4L2 systems were first determined (using a combination of potentiometric and pH-dependent UV–vis titrations), followed by Fe(III)–Ga(III) and Fe(III)–Zr(IV) metal–metal competition experiments. […]
Accordingly, the following speciation could be drawn from the spectra collected: the complexes formation starts at pH<1 involving two hydroxamate groups coordinated to Fe(III) ion, while the three hydroxamate complexes are observed over pH range 3-9. Above pH 9, the absorbance begins to […]

[2] = Fe(III)-L + Zr(IV)-NTA metal–metal competition UV–vis titrations; assay type: physicochemical; settings: log β[ZrL2] vs log β[ZrL1]

Row | log β [FeL] [1] | increase in log β of the Zr(IV) complex with respect to Zr(IV)-H3L1 [2] | log β [FeHL] [1] | Structure (SMILES)
1 | 28.7(1) ^d |  |  | O=C1CCCN(O)C(=O)CCCNC(=O)CCCN(O)C(=O)CCCNC(=O)CCCN(O)C(=O)CCCN1 [H3L1, 1,11,21-Trihydroxy-1,6,11,16,21,26-hexaazacyclotriacontane-2,7,12,17,22,27-hexaone]
2 |  | 8.5 orders of magnitude | 36.82(6) ^d | N[C@H]1CCCCNC(=O)CCCN(O)C(=O)CCCNC(=O)CCCN(O)C(=O)CCCNC(=O)CCCN(O)C(=O)CCCNC(=O)CCCN(O)C(=O)CCCNC1=O [H4L2, (S)-43-Amino-6,16,26,36-tetrahydroxy-1,6,11,16,21,26,31,36,41-nonaazacycloheptatetracontane-2,7,12,17,22,27,32,37,42-nonaone]
